Like-named read-outs stand apart in the source and are kept apart here.

One series addresses T1, human NPP3 (Homo sapiens, UniProt O14638).
T1 sequence (O14638 1-875): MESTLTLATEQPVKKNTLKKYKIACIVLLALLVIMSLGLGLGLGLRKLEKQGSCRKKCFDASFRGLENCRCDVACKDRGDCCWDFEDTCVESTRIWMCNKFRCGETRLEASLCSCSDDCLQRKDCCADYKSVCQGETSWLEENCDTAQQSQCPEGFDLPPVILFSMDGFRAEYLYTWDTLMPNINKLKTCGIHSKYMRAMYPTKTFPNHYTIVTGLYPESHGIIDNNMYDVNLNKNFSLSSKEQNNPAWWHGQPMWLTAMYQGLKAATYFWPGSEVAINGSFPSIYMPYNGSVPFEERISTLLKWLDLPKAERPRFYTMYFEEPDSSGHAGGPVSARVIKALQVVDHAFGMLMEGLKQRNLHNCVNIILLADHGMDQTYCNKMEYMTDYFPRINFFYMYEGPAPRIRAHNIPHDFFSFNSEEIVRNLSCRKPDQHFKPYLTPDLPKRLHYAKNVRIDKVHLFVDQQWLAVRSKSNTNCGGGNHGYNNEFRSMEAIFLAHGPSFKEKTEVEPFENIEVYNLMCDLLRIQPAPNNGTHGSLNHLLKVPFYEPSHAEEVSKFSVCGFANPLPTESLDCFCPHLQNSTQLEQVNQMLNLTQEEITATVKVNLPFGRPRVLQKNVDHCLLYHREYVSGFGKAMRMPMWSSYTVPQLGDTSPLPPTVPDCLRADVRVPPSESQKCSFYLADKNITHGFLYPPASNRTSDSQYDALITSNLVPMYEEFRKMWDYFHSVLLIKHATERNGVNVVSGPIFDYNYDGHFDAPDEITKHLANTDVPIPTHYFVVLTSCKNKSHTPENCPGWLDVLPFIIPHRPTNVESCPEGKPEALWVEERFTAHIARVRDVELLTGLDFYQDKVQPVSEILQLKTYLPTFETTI
The experiment in a line: Inhibition of human NPP3, 100 μM p-Nph-5′-TMP as substrate (Tables 5, 7). It counts as biochemical. The conditions noted are these: 10 μM; 100 μM p-Nph-5′-TMP as a substrate; inactive = no inhibition at 10 μM.

For the next series, the target named is T2, Human CD39 (NTPDase1) (Homo sapiens, UniProt P49961).
T2 sequence (P49961 1-510): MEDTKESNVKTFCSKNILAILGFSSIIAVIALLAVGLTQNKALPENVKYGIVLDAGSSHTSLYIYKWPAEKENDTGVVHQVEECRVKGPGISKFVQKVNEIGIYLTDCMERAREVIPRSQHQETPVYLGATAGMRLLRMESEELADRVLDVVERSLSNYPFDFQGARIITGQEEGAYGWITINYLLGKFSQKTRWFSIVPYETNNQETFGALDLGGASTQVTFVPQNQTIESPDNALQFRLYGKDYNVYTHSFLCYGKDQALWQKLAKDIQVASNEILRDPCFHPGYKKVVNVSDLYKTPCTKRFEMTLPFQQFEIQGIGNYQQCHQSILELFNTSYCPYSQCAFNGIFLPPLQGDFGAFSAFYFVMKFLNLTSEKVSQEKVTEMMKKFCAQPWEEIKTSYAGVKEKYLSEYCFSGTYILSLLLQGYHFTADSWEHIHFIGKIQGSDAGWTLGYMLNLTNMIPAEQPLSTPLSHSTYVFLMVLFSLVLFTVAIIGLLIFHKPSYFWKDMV
The experiment in a line: Inhibition of human CD39 (NTPDase1), 100 μM ADP as substrate. It counts as biochemical. The note with it: 100 μM ADP as a substrate; for Ki: read-out: Ki ± SD (μM), Human CD39 (NTPDase1).

A further series addresses T3, Human CD73 (Homo sapiens, UniProt P21589).
T3 sequence (P21589 27-549): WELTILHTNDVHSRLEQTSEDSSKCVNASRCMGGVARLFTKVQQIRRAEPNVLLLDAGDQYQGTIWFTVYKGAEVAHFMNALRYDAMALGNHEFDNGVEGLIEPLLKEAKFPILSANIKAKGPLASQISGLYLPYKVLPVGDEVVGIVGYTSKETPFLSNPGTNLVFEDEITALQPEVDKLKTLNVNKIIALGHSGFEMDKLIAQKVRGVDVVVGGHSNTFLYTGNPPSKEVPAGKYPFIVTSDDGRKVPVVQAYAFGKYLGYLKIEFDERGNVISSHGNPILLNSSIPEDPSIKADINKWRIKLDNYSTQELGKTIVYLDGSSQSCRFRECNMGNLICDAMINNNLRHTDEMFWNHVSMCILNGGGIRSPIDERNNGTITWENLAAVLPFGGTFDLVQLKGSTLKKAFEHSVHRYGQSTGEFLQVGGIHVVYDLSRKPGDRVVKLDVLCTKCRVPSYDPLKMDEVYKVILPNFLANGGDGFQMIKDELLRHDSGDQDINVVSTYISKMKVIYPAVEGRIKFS
The experiment in a line: Inhibition of human CD73, 5 μM [2,8-3H]AMP as substrate. It counts as biochemical. The note with it: 5 μM [2,8-3H]AMP as a substrate; for Ki: read-out: Ki ± SD (μM), Human CD73; for % inhibition ± SD at 10 μM, Human CD73: inactive = no inhibition at 10 μM.

Series [1] deals with T4, NPP1 (Homo sapiens, UniProt P22413).
T4 sequence (P22413 1-925): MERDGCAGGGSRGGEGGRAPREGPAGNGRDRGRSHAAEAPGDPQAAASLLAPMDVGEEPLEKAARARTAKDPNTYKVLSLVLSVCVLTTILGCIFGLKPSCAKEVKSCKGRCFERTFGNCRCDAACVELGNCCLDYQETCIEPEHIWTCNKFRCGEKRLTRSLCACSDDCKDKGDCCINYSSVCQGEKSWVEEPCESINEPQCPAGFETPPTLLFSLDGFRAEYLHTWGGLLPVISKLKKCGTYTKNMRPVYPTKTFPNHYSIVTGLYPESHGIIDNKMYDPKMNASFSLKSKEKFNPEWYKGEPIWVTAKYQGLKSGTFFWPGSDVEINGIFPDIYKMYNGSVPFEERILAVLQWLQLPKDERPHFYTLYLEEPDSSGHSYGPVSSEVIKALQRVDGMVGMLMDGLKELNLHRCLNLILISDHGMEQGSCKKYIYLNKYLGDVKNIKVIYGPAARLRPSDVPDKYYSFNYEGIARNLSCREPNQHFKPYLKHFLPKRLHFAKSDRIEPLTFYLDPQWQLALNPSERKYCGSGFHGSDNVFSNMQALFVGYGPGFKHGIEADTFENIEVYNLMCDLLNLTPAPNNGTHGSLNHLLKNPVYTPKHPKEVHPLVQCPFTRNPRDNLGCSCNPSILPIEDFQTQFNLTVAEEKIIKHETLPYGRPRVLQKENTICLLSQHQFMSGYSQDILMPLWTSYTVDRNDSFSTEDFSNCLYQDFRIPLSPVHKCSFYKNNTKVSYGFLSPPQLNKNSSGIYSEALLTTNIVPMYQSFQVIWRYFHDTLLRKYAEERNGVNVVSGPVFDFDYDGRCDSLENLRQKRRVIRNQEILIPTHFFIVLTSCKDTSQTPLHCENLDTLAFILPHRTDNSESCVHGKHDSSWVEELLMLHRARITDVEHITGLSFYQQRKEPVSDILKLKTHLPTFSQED
The experiment in a line: Inhibition of human NPP1, 100 μM p-Nph-5′-TMP as substrate (Tables 5, 6). The conditions noted are these: for % inhibition ± SD at 10 μM, Human NPP1: inactive = no inhibition at 10 μM.

Series [2] in a line: Chemical stability under acidic and basic conditions by 31P-NMR.
Text: To evaluate the chemical stability of uridine-5′-Pα,α-dithiophosphate analogues, we measured by 31P-NMR the time-dependent percentage of the analogues remaining under basic and acidic conditions, and due to air-oxidation.
For series [3] the following is noted: cited from earlier work.
The target of series [4] is T4, NPP1. The experiment in a line: Inhibition of human NPP1, 100 μM ATP as substrate (FIG. 9, Table 6). The class given is biochemical. The conditions noted are these: 100 μM ATP as a substrate; read-out: Ki, human NPP1. On the procedure: Each experiment was performed in triplicates;
Where [5] appears, read: 10 μM, inactive = no inhibition at 10 μM.
Where [6] appears, read: 100 μM p-Nph-5′-TMP as a substrate.
Setting [7] is: read-out: Ki ± SD (μM), Human NPP1, 100 μM p-Nph-5′-TMP as a substrate.

Turning to `Nc1ncnc2c1ncn2[C@@H]1O[C@H](COP(=O)(O)CS(=O)(=O)O)[C@@H](O)[C@H]1O` [Compound 20], at human NPP3, the “% inhibition ± SD at 10 μM, Human NPP3” value is “inactived”. In addition, the “% inhibition ± SD at 10 μM, Human CD39 (NTPDase1)” value (shortened to “% inhibition ± SD … (NTPDase1)”) at Human CD39 (NTPDase1) (setting [5]) was “inactived”. Moreover, the Ki – broadly, a measure of affinity in units of concentration, obtained from inhibition or displacement – at Human CD73 came to 49.5 ± 0.7 µM. The “% inhibition ± SD at 10 μM, Human NPP1” value at NPP1 [1] (setting [6]) was “inactived”.
Turning to `Nc1ncnc2c1ncn2COCCO[PH](=O)O` [Compound 25], the “% inhibition ± SD at 10 μM, Human NPP3” value at human NPP3 is “inactived”. For the same molecule, the inhibition (commonly the drop in the measured response relative to a control, in per cent) at 10 µM on Human CD39 (NTPDase1) (10 μM, inactive = no inhibition at 10 μM, read-out: % inhibition ± SD at 10 μM, Human CD39 (NTPDase1)) was 33%; on NPP1 [1] (read-out: % inhibition ± SD at 10 μM, Human NPP1), 6%. Also, the Ki on Human CD39 (NTPDase1) and on NPP1 [1] was more than 10 µM in each case. Moreover, the “% inhibition ± SD at 10 μM, Human CD73” value at Human CD73 was “inactived”.
As for `O=c1ccn([C@@H]2O[C@H](COP(=O)(O)OP(=O)(O)O)[C@@H](O)[C@H]2O)c(=O)[nH]1` [UDP], in series [2] (pD 2.1, after 28 days), the decomposition was 7%.
For the molecule `Nc1ncnc2c1ncn2COCCOP(=O)(O)C(Cl)(Cl)P(=O)(O)O` [Compound 23], the “% inhibition ± SD at 10 μM, Human NPP3” value at human NPP3 is “inactived”. For the same molecule, the “% inhibition ± SD … (NTPDase1)” value on Human CD39 (NTPDase1) (setting [5]) was 24 ± 3%. Further, the Ki on Human CD39 (NTPDase1), at Human CD73 and at NPP1 [1] (setting [7]) was more than 10 µM throughout. The “% inhibition ± SD at 10 μM, Human CD73” value at Human CD73 is reported as 17 ± 4%. In addition, at NPP1 [1] (setting [6]), the “% inhibition ± SD at 10 μM, Human NPP1” value amounted to 4 ± 1%.
In the case of `CSc1nc(N)c2ncn(C3OC(COP(O)(=S)OP(=O)(O)O)C(O)C3O)c2n1` (stereo not drawn) [2-Methylthio-ADP-α-S], in series [3] (Basic pH, reference 24), the “Time for decomposition of 5%” value is given as less than 0.5 h and the “Time for decomposition of 10%” value was less than 0.5 h.
For the molecule `Nc1nc(SCc2ccccc2)nc2c1ncn2[C@@H]1O[C@H](COP(O)(=S)OP(=O)(O)OP(=O)(O)O)[C@@H](O)[C@H]1O` (stereo partly drawn) [2-Benzylthio-ATP-α-S], in series [3] (Acidic pH, reference 34), the “Time for decomposition of 5%” value was 19 h and the “Time for decomposition of 10%” value was 40.8 h.
For `Nc1ncnc2c1ncn2COCCOP(=O)(O)O` [Compound 24], the “% inhibition ± SD at 10 μM, Human NPP3” value at human NPP3 was “inactived”. The “% inhibition ± SD … (NTPDase1)” value on Human CD39 (NTPDase1) (setting [5]) is “inactived”. Besides, at Human CD73, the Ki was more than 10 µM and the “% inhibition ± SD at 10 μM, Human CD73” value is 5 ± 3%. The “% inhibition ± SD at 10 μM, Human NPP1” value on NPP1 [1] (setting [6]) was “inactived”.
As to `Nc1ncnc2c1ncn2[C@@H]1O[C@H](COS(=O)(=O)CS(=O)(=O)O)[C@@H](O)[C@H]1O` [Compound 21], on human NPP3, the “% inhibition ± SD at 10 μM, Human NPP3” value was “inactived”. Besides, at Human CD39 (NTPDase1) (setting [5]), the “% inhibition ± SD … (NTPDase1)” value is “inactived”. The Ki on Human CD73 and on NPP1 [1] (setting [7]) was more than 10 µM each time. Moreover, on Human CD73, the “% inhibition ± SD at 10 μM, Human CD73” value worked out at 23 ± 3%. Moreover, the “% inhibition ± SD at 10 μM, Human NPP1” value at NPP1 [1] (setting [6]) amounted to 12 ± 1%.
In the case of `Nc1ncnc2c1ncn2COCCOP(=O)(O)CP(=O)(O)O` [Analogue 22], the Ki is 9.6 ± 2.84 µM at NPP1 [4] and 16.3 ± 2.5 µM on NPP1 [1] (setting [7]).
With `O=c1ccn([C@@H]2O[C@H](COP(=O)(O)OP(=O)(O)OP(=O)(O)O)[C@@H](O)[C@H]2O)c(=O)[nH]1` [UTP], the “Time for decomposition of 5%” value was 7.5 days in series [2] (Acidic pH) and 1 days in series [2] (Basic pH). In addition, the entries for the “Time for decomposition of 10%” value in series [2] (Acidic pH) and in series [2] (Basic pH) were 19 days and 8.5 days, respectively. Moreover, the decomposition in series [2] (acidic, pD 2.1, after 20 days) was 11%; in series [2] (basic conditions (pD 12.1), after 20 days), 10%.
Turning to `Nc1ncnc2c1ncn2COCCOP(O)(=S)OCCOCn1cnc2c(N)ncnc21` [Compound 26], the “% inhibition ± SD at 10 μM, Human NPP3” value at human NPP3 is “inactived”. On Human CD39 (NTPDase1) (setting [5]), the “% inhibition ± SD … (NTPDase1)” value came to 15 ± 2%. Further, the Ki on Human CD39 (NTPDase1) and at NPP1 [1] (setting [7]) was more than 10 µM throughout. At Human CD73, the “% inhibition ± SD at 10 μM, Human CD73” value is “inactived”. The “% inhibition ± SD at 10 μM, Human NPP1” value at NPP1 [1] (setting [6]) was 13 ± 1%.
`Nc1ncnc2c1ncn2COCCOP(=O)(O)CP(=O)(O)O` [Compound 22]: at human NPP3, the “% inhibition ± SD at 10 μM, Human NPP3” value is “inactived”. The “% inhibition ± SD … (NTPDase1)” value at Human CD39 (NTPDase1) (setting [5]) stood at 22 ± 2%. Further, the inhibition constant Ki at Human CD39 (NTPDase1) is more than 10 µM; on Human CD73 it was 12.6 ± 1.4 µM.

The values are drawn from US20220220135A1 (BAR-ILAN UNIVERSITY, priority 2019, published 2022).
